Laboratory results taken from article PMC10926604, “Discovery of a novel small molecule as CD47/SIRPα and PD-1/PD-L1 dual inhibitor for cancer immunotherapy” (Cell Communication and Signaling : CCS, 2024).
Entries after “also recorded” stand apart in the source; their conditions may differ.

What was measured:
human SIRPα (hSIRPα) = target: T1, human SIRPα (hSIRPα) (Homo sapiens, UniProt P78324); assay: MST binding assay, human SIRPα; conditions: SIRPα-IgV-His, read-out: dissociation constant (KD) for human SIRPα
T1 construct: SIPRα-IgV-His (human: SIA-H5225, mouse: SIA-M52H4, ACRO Biosystems); His; purchased ACRO Biosystems SIA-H5225
Procedure: SIPRα-IgV-His (human: SIA-H5225, mouse: SIA-M52H4, ACRO Biosystems) and PD-L1-IgV-His (human: 10,084-H08H, mouse: 50,010-M08H, Sino Biological) proteins were labeled with Red-NHS647 dye (NT-MO-L001, NanoTemper) for subsequent experiments. SMC18 (C385-0664, ChemDiv) was serially diluted using PBST (from 0.0191 μM to 200 μM) and mixed with the labeled proteins. The samples were then aspirated using standard capillaries and assayed by MST instrument (Monolith NT.115, NanoTemper), and the results were analyzed using the analytical software Monolith NT.115 system to calculate the dissociation constant (KD) values.

hLAG-3/hFGL-1 = hLAG-3/hFGL-1 (Homo sapiens, UniProt P18627+Q08830); assay: Blockade of other immune checkpoint pathways, LAG-3/FGL-1; format: cell-based; conditions: Fig. S2
MC38 cells = assay: MTT assay, MC38 cells; format: cell-based, mouse; conditions: 100 µM; 24 h, 48 h, 72 h
Procedure: MC38 and B16-OVA cells were seeded into 96-well plates at a density of 3,000 cells per well, respectively and allowed to adhere overnight. SMC18 was added to the cells and incubated for 24 h, 48 h and 72 h, respectively. Cell viability was measured by adding MTT (3-(4, 5-dimethyl-2-thiazolyl)-2,5-diphenyl-2-H-tetrazolium bromide, 298–93-1, Sigma) solution and incubating for 4 h. The cells were then lysed by shaking with DMSO. The absorbance values at 490 nm were measured using a multi-mode microplate reader (Molecular Devices, SpectraMax iD5).
Fig S3. The Effect of SMC18 on Tumor Cell Proliferation in vitro. MC38 cells (3000 cells/well) and B16-OVA cells (3000 cells/well) were seeded in flat-bottomed 96-well plates and allowed to adhere overnight. Subsequently, the cells were starved for 8 hours in serum-free medium. SMC18 was diluted in complete culture medium and added to the wells, following which the cells were incubated for 24 h, 48 h, and 72 h. After the designated incubation periods, 20 μL of MTT solution was added to each well. Four hours later, the supernatant was aspirated, and 150 μL of DMSO was added to each well to dissolve the MTT formazan product. The plates were then shaken for 10 minutes, and absorbance was measured at 490 nm using a microplate reader.

SIRPα = assay: Tyrosine phosphorylation assay of SIRPα, BMDM/MC38 co-culture; format: cell-based, mouse; conditions: 50 μM, BMDMs co-cultured with MC38 cells, 30 min, Western blotting
Procedure: Murine bone marrow-derived macrophages were subjected to induction using murine GM-CSF for 7 days. Subsequently, the induced macrophages (2 × 10^6 cells/well) were co-cultured with MC38 cells (1 × 10^7 cells/well). The co-cultures were treated with PBS (negative control), SMC18 (50 μM), or anti-mouse CD47 (clone miap301, 20 μg/mL, positive control) and incubated at 37℃ for 30 min. Following this, cells were washed and lysed. Finally, cell lysates were collected for immunoprecipitation and Western blotting.
In brief, the protein samples were separated by SDS-PAGE using a 4% stacking gel and an 8 ~ 10% main gel and transferred to a polyvinylidene difluoride (PVDF) membrane. The membrane was blocked with 5% milk at room temperature for 1–2 h and then incubated with anti-SIRPα (dilution 1:1000, AB8120, Abcam), anti-PD-1 (dilution 1:200, ab52587, Abcam) or anti-Phosphotyrosine (dilution 1:1000, 05–321, Millipore) dissolved in primary antibody dilution buffer overnight at 4 °C. Then the membrane was washed and incubated with appropriate HRP-coupled goat anti-rabbit IgG (D110058, Sangon Biotech) and HRP-coupled goat anti-mouse IgG (D110087, Sangon Biotech) for 1–2 h at room temperature. Finally, the membranes were exposed using an enhanced chemiluminescence (ECL) detection kit (P1030, Applygen). Results were analyzed by ImageJ software (NIH, Bethesda, MD, United States).

MC38 tumor-bearing mice = assay: MC38 tumor model; format: in vivo, mouse; conditions: 2 or 6 mg/kg i.p. daily for 14 days
Procedure: The animal studies were conducted in accordance with the guidelines and approved by the Ethics Committee of Zhengzhou University (ZZUIRB 2021–36). Six weeks old female mice were purchased from the Vital River Laboratory (Beijing, China). Mouse MC38 colorectal cancer cells (1 × 10^6) were harvested and subcutaneously (s.c.) injected into the right abdomen of the mice. When the tumor size reached 40 ~ 80 mm^3, the mice were randomly assigned into three groups (n = 5 per group) to receive intraperitoneal injections daily of SMC18 (2 mg/kg), SMC18 (6 mg/kg) or normal saline for 14 days. At day 23, mice were euthanized for ex vivo analysis.

[1] = Mouse blood indicators and H&E staining of major organs; format: in vivo; conditions: for ALT: NS 45.13 ± 1.55; for AST: NS 187.4 ± 25.5
Procedure: Peripheral blood samples were collected from mice that received intravenous injections of SMC18 (2 or 6 mg/kg) for 2 weeks. The samples were analyzed for whole blood hematological test to detect the indicators of anemia and liver injury. For H&E staining analysis, tumors and the major organs (heart, liver, spleen, lung and kidney) were harvested from tumor-bearing mice. The tissues were then fixed with 4.0% paraformaldehyde for paraffin embedding and processed by H&E staining for histological evaluation. Immunostaining of tumor tissue sections was conducted utilizing anti-mouse CD8α andtibody (53–6.7, eBioscience).

hLAG-3/hFGL-1, sequence (P18627 23-525): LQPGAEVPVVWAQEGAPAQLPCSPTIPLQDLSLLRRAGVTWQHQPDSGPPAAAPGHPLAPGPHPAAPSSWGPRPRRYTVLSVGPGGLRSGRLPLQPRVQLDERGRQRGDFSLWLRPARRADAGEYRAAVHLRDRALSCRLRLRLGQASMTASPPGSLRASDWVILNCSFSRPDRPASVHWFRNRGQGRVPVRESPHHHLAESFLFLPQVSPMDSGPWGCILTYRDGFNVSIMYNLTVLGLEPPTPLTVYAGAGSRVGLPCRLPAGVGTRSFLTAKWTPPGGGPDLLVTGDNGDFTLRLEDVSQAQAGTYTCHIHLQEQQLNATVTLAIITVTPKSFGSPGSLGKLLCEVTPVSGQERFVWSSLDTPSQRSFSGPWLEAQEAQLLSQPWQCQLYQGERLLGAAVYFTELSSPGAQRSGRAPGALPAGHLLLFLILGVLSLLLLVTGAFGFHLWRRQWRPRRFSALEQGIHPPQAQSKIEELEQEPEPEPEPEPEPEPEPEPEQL
hLAG-3/hFGL-1, sequence (Q08830 23-312): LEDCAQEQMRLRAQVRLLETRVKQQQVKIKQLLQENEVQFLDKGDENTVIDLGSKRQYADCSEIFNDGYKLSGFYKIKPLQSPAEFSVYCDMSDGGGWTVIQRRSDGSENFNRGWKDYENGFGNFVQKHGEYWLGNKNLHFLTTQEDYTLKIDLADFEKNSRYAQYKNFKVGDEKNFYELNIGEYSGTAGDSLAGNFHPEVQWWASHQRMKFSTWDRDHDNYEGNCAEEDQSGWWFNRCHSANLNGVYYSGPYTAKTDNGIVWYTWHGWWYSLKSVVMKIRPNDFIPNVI
T1 sequence (P78324 32-137 limits assumed): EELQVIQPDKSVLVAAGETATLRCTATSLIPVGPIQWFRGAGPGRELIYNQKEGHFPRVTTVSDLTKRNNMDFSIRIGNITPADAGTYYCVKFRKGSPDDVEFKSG

With `Cc1cc(C)cc(NS(=O)(=O)c2ccc3[nH]cc(C(=O)NCCc4ccccc4)c(=O)c3c2)c1` [SMC18] the Kd (human SIRPα (hSIRPα)) was 550 ± 100 nM, the “inhibitory effect on hLAG-3/hFGL-1 pathway” value (hLAG-3/hFGL-1) was “no blocking effect; also recorded: did not impede” and the “toxicity to MC38 cells (MTT)” value (MC38 cells) was “non-toxic”. For the same compound, the “tyrosine phosphorylation levels of SIRPα” value (SIRPα) was “significantly suppressed”, the “body weight of tumor-bearing mice” value (MC38 tumor-bearing mice) was “without affecting” and the “growth of MC38 tumors” value (MC38 tumor-bearing mice) was “effectively delayed”. The ALT ([1]; 2 mg/kg daily for 14 days) was 56.57 ± 13.3 U/L, the AST ([1]; 2 mg/kg daily for 14 days) was 196.4 ± 20.7 U/L and the ALT ([1]; 6 mg/kg daily for 14 days) was 46.83 ± 7.74 U/L. The AST ([1]; 6 mg/kg daily for 14 days) was 191.1 ± 23.3 U/L, the “content of alanine aminotransferase (ALT) vs control group” value ([1]; 2 or 6 mg/kg daily for 14 days) was “no significant differences” and the “content of aspartate aminotransferase (AST) vs control group” value ([1]; 2 or 6 mg/kg daily for 14 days) was “no significant differences”. For the same compound, the “levels of erythrocytes (RBC count) vs control group” value ([1]; 2 or 6 mg/kg daily for 14 days) was “No significant differences”, the “levels of hemoglobin vs control group” value ([1]; 2 or 6 mg/kg daily for 14 days) was “No significant differences” and the “H&E staining of major organs (heart, liver, spleen, lung, kidney)” value ([1]; tumor-bearing mice treated with SMC18) was “no significant damage”.
